The values that follow come from BindingDB's records for doi:10.1021/jm980314l (Tanabe Seiyaku, 1999).

Molecules are shown by their SMILES. Counter-ions that a name gives are not always drawn.

In the assay the target is cGMP-specific 3',5'-cyclic phosphodiesterase PDE5 (Cavia porcellus). Nature of the assay: Inhibition of Phosphodiesterase 5 of guinea pig lung.
In turn, `COc1cc2cc(CO)c(CO)c(-c3ccnc(-n4ccc(=O)c5ccccc54)c3)c2cc1OC` [1-[4-(2,3-Bis-hydroxymethyl-6,7-dimethoxy-naphthalen-1-yl)-pyridin-2-yl]-1H-quinolin-4-one] gave an IC50 of 20 µM. Next, `COc1cc2cc(CO)c(CO)c(-c3ccnc(-n4nc(-c5ccccn5)c5ccccc5c4=O)c3)c2cc1OC` [2-[4-(2,3-Bis-hydroxymethyl-6,7-dimethoxy-naphthalen-1-yl)-pyridin-2-yl]-4-pyridin-2-yl-2H-phthalazin-1-one; hydrochloride]: 9 µM. With `COc1cc2cc(CO)c(CO)c(-c3ccnc(-n4nc(-c5cccnc5)c5ccccc5c4=O)c3)c2cc1OC` [2-[4-(2,3-Bis-hydroxymethyl-6,7-dimethoxy-naphthalen-1-yl)-pyridin-2-yl]-4-pyridin-3-yl-2H-phthalazin-1-one; hydrochloride] the figure was 4 µM; with `O=c1c2ccccc2c(-c2cccnc2)nn1-c1cc(-c2c(CO)c(CO)cc3ccccc23)ccn1` [2-[4-(2,3-Bis-hydroxymethyl-naphthalen-1-yl)-pyridin-2-yl]-4-pyridin-3-yl-2H-phthalazin-1-one; hydrochloride], 10 µM; with `CCOc1cc2cc(CO)c(CO)c(-c3ccnc(-n4nc(-c5cccnc5)c5ccccc5c4=O)c3)c2cc1OCC` [2-[4-(6,7-Diethoxy-2,3-bis-hydroxymethyl-naphthalen-1-yl)-pyridin-2-yl]-4-pyridin-3-yl-2H-phthalazin-1-one; hydrochloride], 0.2 µM. With `CCOc1cc2cc(CO)c(CO)c(-c3ccnc(-n4nc(-c5cccnc5)c5ccccc5c4=O)c3)c2cc1OC` [2-[4-(6-Ethoxy-2,3-bis-hydroxymethyl-7-methoxy-naphthalen-1-yl)-pyridin-2-yl]-4-pyridin-3-yl-2H-phthalazin-1-one; hydrochloride] the figure was 1 µM. `COc1cc2cc(CO)c(CO)c(-c3ccc(-n4nc(-c5cccnc5)c5ccccc5c4=O)nc3)c2cc1OC` [2-[5-(2,3-Bis-hydroxymethyl-6,7-dimethoxy-naphthalen-1-yl)-pyridin-2-yl]-4-pyridin-3-yl-2H-phthalazin-1-one; hydrochloride] displayed an IC50 of 40 µM. Next, `COc1cc2cc(CO)c(CO)c(-c3ccnc(-n4ccccc4=O)c3)c2cc1OC` [4'-(2,3-Bis-hydroxymethyl-6,7-dimethoxy-naphthalen-1-yl)-[1,2']bipyridinyl-2-one]: 40 µM.

The term IC50 denotes the midpoint of a concentration-inhibition curve.
